Experiments:
[1] = test system: fibroblasts isolated from an SMA patient; assay: SMN protein and gem formation in SMA patient fibroblasts; format: cell-based, human; details: compared with the control DMSO
From the text: The invention is further related to the appreciation that the assays described herein can be efficiently used as the primary assay for selecting a candidate for the treatment of SMA. Thus, the invention relates to a method for selecting a candidate for the treatment of SM-A comprising (a) contacting the candidate with a fibroblast cell culture derived from an SMA patient under conditions and for a period of time sufficient for SMN protein expression and gem formation; (b) determining the formation of gems of SMN protein; and (c) selecting the candidate. The formation of gems can be determined by establishing the percentage of fibroblasts with gems in the cell culture. In other embodiments, the number of gems or concentration of gems in the culture can be determined.
Cell lines are derived from SMA patients. Such cells are termed “SMA cells” herein. The cells are isolated from a variety of sources and tissues. For example, the cells can be isolated from a blood sample or from a biopsy. The cell can be a stem cell, a fibroblast, a neuronal cell or a lymphoid cell. The cells can be propagated in culture according to cell type and origin of the cells. The requisite growth factors can be provided in the media. For example, the media can be supplemented with fetal calf serum, a cocktail of purified factors, or an individual growth factor. The cells can be propagated without being immortalized. Alternatively, the cells can immortalized using a virus or a plasmid bearing an oncogene, or a transforming viral protein, e.g., papilloma E6 or E7 protein. The source of the fibroblasts for cell culture can be isolated from a patient with SMA or derived from such an isolation. In one embodiment, the cells are a clonal cell culture derived from an SMA patient.
Procedures for isolating and maintaining cells lines are well known in the art and can be found in suitable laboratory manuals. The cells can be grown in sufficient amount to screen an array of test compounds. Alternatively, cells can be used to assess the effectiveness of individual compounds as SMA treatments. […]

proteasome = details: Fenteany et al., Science 1995; cited from earlier work
several cell types = details: Fenteany et al., PNAS 1994; cited from earlier work

Row | Structure (SMILES) | SMN & Gems in patient fibroblasts (pictures) [1] | proteolytic activity of the proteasome complex (proteasome) | proliferation of several cell types (several cell types)
1 | CC(C)[C@H](O)[C@@]12NC(=O)[C@H](CCCl)[C@]1(C)OC2=O [Antiprotealide, antiprotealide] | induced | – | –
2 | CC(=O)N[C@@H](CSC(=O)[C@]1([C@@H](O)C(C)C)NC(=O)[C@H](C)[C@@H]1O)C(=O)O [Lactacystin, lactacystin] | induced | specifically inhibits | capable of inhibiting
3 | CC(C)C[C@H](NC(=O)[C@H](Cc1ccccc1)NC(=O)c1cnccn1)B(O)O [Velcade, bortezomib] | induced | – | –
